Experimental findings from patent publication US9266877B2, “Apoptosis-inducing agents for the treatment of cancer and immune and autoimmune diseases” (priority 2011, dated 2016) are described below.

Some results are limits rather than exact numbers.

For the first experiment, the target named is Bcl-xL (Homo sapiens (Human), UniProt Q07817). The experiment is described as follows: Time Resolved-Fluorescence Resonance Energy Transfer (TR-FRET) binding assay, competition with F-Bak.
Bcl-xL, sequence (Q07817 whole entry): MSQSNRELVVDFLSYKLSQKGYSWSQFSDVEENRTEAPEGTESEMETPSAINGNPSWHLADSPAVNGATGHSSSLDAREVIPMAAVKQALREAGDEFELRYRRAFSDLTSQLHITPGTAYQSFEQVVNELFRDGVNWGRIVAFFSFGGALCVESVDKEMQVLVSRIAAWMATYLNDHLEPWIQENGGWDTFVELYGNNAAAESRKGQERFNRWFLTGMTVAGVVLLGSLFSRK
Conditions: not given
Turning to `Cc1c(-c2ccc(N3CCc4cccc(C(=O)Nc5nc6ccccc6s5)c4C3)nc2C(=O)O)cccc1N(C)C1CCCC(C)(C)C1` (centres unmarked) [Example 159, 6-[8-(1,3-benzothiazol-2-ylcarbamoyl)-3,4-dihydroisoquinolin-2(1H)-yl]-3-{3-[(3,3-dimethylcyclohexyl)(methyl)amino]-2-methylphenyl}pyridine-2-carboxylic acid], the affinity, expressed as Ki, was 0.2 nM.

The experiment is the same for the next values; noted with them: competition with F-Bak probe, GST-Bcl-xL; read-out: TR-FRET binding Bcl-xL Ki.
On to `Cc1[nH]c(C#N)c(CC2CCCCC2)c1-c1ccc(N2CCc3cccc(C(=O)Nc4nc5ccccc5s4)c3C2)nc1C(=O)NS(C)(=O)=O` [Example 171, N-(1,3-benzothiazol-2-yl)-2-{5-[5-cyano-4-(cyclohexylmethyl)-2-methyl-1H-pyrrol-3-yl]-6-[(methylsulfonyl)carbamoyl]pyridin-2-yl}-1,2,3,4-tetrahydroisoquinoline-8-carboxamide], for which the Ki (usually a dissociation constant, usually derived from enzyme kinetics or from competition with a known ligand) was under 0.1 nM.

The next experiment deals with FL5.12 cells transfected with Bcl-XL. The experiment can be described thus: FL5.12 Cellular Assay (cell viability, CellTiter-Glo). In kind it is cell-based, mouse. Particulars: Mus musculus, FL5.12, 24 h, read-out: FL5.12 Bcl-xL, IL3, EC 50 (nM). (ATP-based viability assays read luminescence as a measure of living cells.)
Protocol: For assaying the compound activity, the cells were exchanged into an IL-3-depleted deprivation media, which was identical to the growth media except for the absence of FBS and WEHI-3B conditional media, for 2 days. Then the cells were exchanged to 3% FBS assay media (RPMI with 2 mM glutamine, 1% 100 mM sodium pyruvate, 2% 1 M HEPES, 4 μL/L of β-mercaptoethanol, 1% penicillin-streptomycin, 3% FBS). Compounds in series dilutions were added, and the cells were cultured for 24 hours. […] Cell viability was assayed using the CellTiter-Glo assay (Promega Corp., Madison, Wis.) according to the manufacturer instructions. Individual determinations were the result of duplicate values.
As for `Cc1c(OC2CCCC(C)(C)C2)cccc1-c1ccc(N2CCc3cccc(C(=O)Nc4nc5ccccc5s4)c3C2)nc1C(=O)O` (centres unmarked) [Example 121, 6-[8-(1,3-benzothiazol-2-ylcarbamoyl)-3,4-dihydroisoquinolin-2(1H)-yl]-3-{3-[(3,3-dimethylcyclohexyl)oxy]-2-methylphenyl}pyridine-2-carboxylic acid], the EC50 worked out at 87 nM.

As to `Cc1[nH]c(C#N)c(CC2CCCCC2)c1-c1ccc(N2CCc3cccc(C(=O)Nc4nc5ccccc5s4)c3C2)nc1C(=O)NS(C)(=O)=O` [Example 171, N-(1,3-benzothiazol-2-yl)-2-{5-[5-cyano-4-(cyclohexylmethyl)-2-methyl-1H-pyrrol-3-yl]-6-[(methylsulfonyl)carbamoyl]pyridin-2-yl}-1,2,3,4-tetrahydroisoquinoline-8-carboxamide], the EC50 turned out to be 97 nM.

Still in this experiment, the particulars now being: mouse FL5.12 cells transfected with Bcl-XL, IL-3-depleted, 3% FBS assay media, 24 hours; read-out: FL5.12 Bcl-xL, IL3, EC 50.
Regarding `O=C(Nc1nc2ccccc2s1)c1cccc2c1CN(c1ccc(-c3cnn(Cc4cccnc4)c3)c(C(=O)O)n1)CC2` [Example 3, 6-[8-(1,3-benzothiazol-2-ylcarbamoyl)-3,4-dihydroisoquinolin-2(1H)-yl]-3-[1-(pyridin-3-ylmethyl)-1H-pyrazol-4-yl]pyridine-2-carboxylic acid], the EC50 is over 1000 nM.

Consider `COc1ccc2nc(NC(=O)c3cccc4c3CN(c3ccc(-c5cnn(Cc6ccccc6)c5)c(C(=O)O)n3)CC4)sc2c1` [Example 11, 3-(1-benzyl-1H-pyrazol-4-yl)-6-{8-[(6-methoxy-1,3-benzothiazol-2-yl)carbamoyl]-3,4-dihydroisoquinolin-2(1H)-yl}pyridine-2-carboxylic acid], for which the EC50 was over 1000 nM.

On to `COc1cccc(Cn2cc(-c3ccc(N4CCc5cccc(C(=O)Nc6nc7ccccc7s6)c5C4)nc3C(=O)O)cn2)c1` [Example 14, 6-[8-(1,3-benzothiazol-2-ylcarbamoyl)-3,4-dihydroisoquinolin-2(1H)-yl]-3-[1-(3-methoxybenzyl)-1H-pyrazol-4-yl]pyridine-2-carboxylic acid], for which the EC50 was over 1000 nM.

As to `O=C(Nc1nc2ccccc2s1)c1cccc2c1CN(c1ccc(-c3cnn(Cc4ccc(Cl)cc4)c3)c(C(=O)O)n1)CC2` [Example 15, 6-[8-(1,3-benzothiazol-2-ylcarbamoyl)-3,4-dihydroisoquinolin-2(1H)-yl]-3-[1-(4-chlorobenzyl)-1H-pyrazol-4-yl]pyridine-2-carboxylic acid], the EC50 was over 1000 nM.

In the case of `O=C(Nc1nc2ccccc2s1)c1cccc2c1CN(c1ccc(-c3cnn(Cc4cccc(O)c4)c3)c(C(=O)O)n1)CC2` [Example 17, 6-[8-(1,3-benzothiazol-2-ylcarbamoyl)-3,4-dihydroisoquinolin-2(1H)-yl]-3-[1-(3-hydroxybenzyl)-1H-pyrazol-4-yl]pyridine-2-carboxylic acid], the EC50 is over 1000 nM.

Take `O=C(Nc1nc2cccc(Cl)c2s1)c1cccc2c1CN(c1ccc(-c3cnn(Cc4ccccc4)c3)c(C(=O)O)n1)CC2` [Example 21, 3-(1-benzyl-1H-pyrazol-4-yl)-6-{8-[(7-chloro-1,3-benzothiazol-2-yl)carbamoyl]-3,4-dihydroisoquinolin-2(1H)-yl}pyridine-2-carboxylic acid]: the EC50 was over 1000 nM.

As to `N#Cc1cccc(Cn2cc(-c3ccc(N4CCc5cccc(C(=O)Nc6nc7ccccc7s6)c5C4)nc3C(=O)O)cn2)c1` [Example 24, 6-[8-(1,3-benzothiazol-2-ylcarbamoyl)-3,4-dihydroisoquinolin-2(1H)-yl]-3-[1-(3-cyanobenzyl)-1H-pyrazol-4-yl]pyridine-2-carboxylic acid], the EC50 was over 1000 nM.

As to `O=C(Nc1nc2ccccc2s1)c1cccc2c1CN(c1ccc(-c3cnn(Cc4ccccn4)c3)c(C(=O)O)n1)CC2` [Example 26, 6-[8-(1,3-benzothiazol-2-ylcarbamoyl)-3,4-dihydroisoquinolin-2(1H)-yl]-3-[1-(pyridin-2-ylmethyl)-1H-pyrazol-4-yl]pyridine-2-carboxylic acid], the EC50 is over 1000 nM.

Consider `O=C(Nc1nc2ccccc2s1)c1cccc2c1CN(c1ccc(-c3cnn(CCc4ccccc4)c3)c(C(=O)O)n1)CC2` [Example 38, 6-[8-(1,3-benzothiazol-2-ylcarbamoyl)-3,4-dihydroisoquinolin-2(1H)-yl]-3-[1-(2-phenylethyl)-1H-pyrazol-4-yl]pyridine-2-carboxylic acid], for which the EC50 was over 1000 nM.

For `CC(C)(C)Cn1cc(-c2ccc(N3CCc4cccc(C(=O)Nc5nc6ccccc6s5)c4C3)nc2C(=O)O)cn1` [Example 59, 6-[8-(1,3-benzothiazol-2-ylcarbamoyl)-3,4-dihydroisoquinolin-2(1H)-yl]-3-[1-(2,2-dimethylpropyl)-1H-pyrazol-4-yl]pyridine-2-carboxylic acid], the EC50 is over 1000 nM.

Consider `Cc1c(-c2ccc(N3CCc4cccc(C(=O)Nc5nc6ccccc6s5)c4C3)nc2C(=O)O)cnn1C[C@@H]1CC[C@@H]2C[C@H]1C2(C)C` [Example 85, 6-[8-(1,3-benzothiazol-2-ylcarbamoyl)-3,4-dihydroisoquinolin-2(1H)-yl]-3-(1-{[(1R,2R,5R)-6,6-dimethylbicyclo[3.1.1]hept-2-yl]methyl}-5-methyl-1H-pyrazol-4-yl)pyridine-2-carboxylic acid], for which the EC50 amounted to 12 nM.

`COCCCC1(Cn2ncc(-c3ccc(N4CCc5cccc(C(=O)Nc6nc7ccccc7s6)c5C4)nc3C(=O)O)c2C)CCCCC1` [Example 97, 6-[8-(1,3-benzothiazol-2-ylcarbamoyl)-3,4-dihydroisoquinolin-2(1H)-yl]-3-(1-{[1-(3-methoxypropyl)cyclohexyl]methyl}-5-methyl-1H-pyrazol-4-yl)pyridine-2-carboxylic acid]: the EC50 is under 1 nM.

For the molecule `O=C(Nc1nc2ccccc2s1)c1cccc2c1CN(c1ccc(-c3cccc(Oc4ccccc4)c3)c(C(=O)O)n1)CC2` [Example 103, 6-[8-(1,3-benzothiazol-2-ylcarbamoyl)-3,4-dihydroisoquinolin-2(1H)-yl]-3-(3-phenoxyphenyl)pyridine-2-carboxylic acid], the EC50 was over 1000 nM.
